Values of other authors in US7198802B2, “Tablet obtained by direct compression comprising 4-amino-1-hydroxybutylidene-1,1-bisphosphonic acid as active ingredient” (Zentiva A.S., priority 2000, dated 2007).

Conditions: atmospheric relative humidity

Row | SMILES | relative humidity at which moisture / water content rises
1 | OC[C@@H](O)[C@@H](O)[C@H](O)[C@H](O)CO [mannitol, Mannitol] | about 98%
2 | OC[C@H]1O[C@@H](O[C@H]2[C@H](O)[C@@H](O)C(O)O[C@@H]2CO)[C@H](O)[C@@H](O)[C@H]1O (some centres unmarked) [Lactose] | above 90%
